# What was measured:
# Mu-type opioid receptor = Mu-type opioid receptor (Homo sapiens, UniProt P35372)
# Adenosine receptor A3 = biological target: T1, Adenosine receptor A3 (Homo sapiens, UniProt P0DMS8)
# T1 sequence (P0DMS8 whole entry): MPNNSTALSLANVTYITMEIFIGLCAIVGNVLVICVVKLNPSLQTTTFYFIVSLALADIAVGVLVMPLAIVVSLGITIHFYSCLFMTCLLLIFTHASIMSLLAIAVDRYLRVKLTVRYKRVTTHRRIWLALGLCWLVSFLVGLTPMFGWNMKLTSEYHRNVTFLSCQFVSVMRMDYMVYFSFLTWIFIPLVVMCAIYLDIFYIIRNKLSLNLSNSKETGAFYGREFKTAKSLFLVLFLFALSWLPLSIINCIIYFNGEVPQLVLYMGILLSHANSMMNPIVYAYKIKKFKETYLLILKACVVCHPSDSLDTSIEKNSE
# [1] = biological target: T2, Muscarinic acetylcholine receptor M2 (Homo sapiens, UniProt P08172); type: functional, cell-based
# T2 sequence (P08172 whole entry): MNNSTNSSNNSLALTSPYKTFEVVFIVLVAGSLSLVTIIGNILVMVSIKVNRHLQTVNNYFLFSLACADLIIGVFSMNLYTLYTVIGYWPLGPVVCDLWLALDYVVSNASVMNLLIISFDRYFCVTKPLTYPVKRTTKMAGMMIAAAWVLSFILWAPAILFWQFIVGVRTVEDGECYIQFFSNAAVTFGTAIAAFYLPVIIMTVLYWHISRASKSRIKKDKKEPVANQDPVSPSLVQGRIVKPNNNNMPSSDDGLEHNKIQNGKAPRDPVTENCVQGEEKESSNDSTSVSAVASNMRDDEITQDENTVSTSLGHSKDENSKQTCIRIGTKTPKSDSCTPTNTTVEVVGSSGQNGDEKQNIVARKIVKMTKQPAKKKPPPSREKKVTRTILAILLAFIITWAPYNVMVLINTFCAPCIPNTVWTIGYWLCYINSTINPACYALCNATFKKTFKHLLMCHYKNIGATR
# Histamine H2 receptor = Histamine H2 receptor (Homo sapiens, UniProt P25021); type: functional, cell-based
# Adenosine receptor A1 = biological target: T3, Adenosine receptor A1 (Homo sapiens, UniProt P30542)
# T3 sequence (P30542 whole entry): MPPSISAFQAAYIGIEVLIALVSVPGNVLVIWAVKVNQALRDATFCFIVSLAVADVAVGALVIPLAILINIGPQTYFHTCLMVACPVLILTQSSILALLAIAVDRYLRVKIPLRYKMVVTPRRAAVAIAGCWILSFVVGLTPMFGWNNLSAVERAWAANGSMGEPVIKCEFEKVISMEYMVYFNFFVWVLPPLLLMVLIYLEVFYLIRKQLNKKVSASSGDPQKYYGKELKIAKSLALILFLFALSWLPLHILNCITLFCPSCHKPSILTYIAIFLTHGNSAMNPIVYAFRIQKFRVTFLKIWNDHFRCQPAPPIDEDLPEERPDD
# [2] = biological target: Beta-2 adrenergic receptor (Homo sapiens, UniProt P07550); type: functional, cell-based
# Endothelin-1 receptor = biological target: T4, Endothelin-1 receptor (Homo sapiens, UniProt P25101)
# T4 sequence (P25101 whole entry): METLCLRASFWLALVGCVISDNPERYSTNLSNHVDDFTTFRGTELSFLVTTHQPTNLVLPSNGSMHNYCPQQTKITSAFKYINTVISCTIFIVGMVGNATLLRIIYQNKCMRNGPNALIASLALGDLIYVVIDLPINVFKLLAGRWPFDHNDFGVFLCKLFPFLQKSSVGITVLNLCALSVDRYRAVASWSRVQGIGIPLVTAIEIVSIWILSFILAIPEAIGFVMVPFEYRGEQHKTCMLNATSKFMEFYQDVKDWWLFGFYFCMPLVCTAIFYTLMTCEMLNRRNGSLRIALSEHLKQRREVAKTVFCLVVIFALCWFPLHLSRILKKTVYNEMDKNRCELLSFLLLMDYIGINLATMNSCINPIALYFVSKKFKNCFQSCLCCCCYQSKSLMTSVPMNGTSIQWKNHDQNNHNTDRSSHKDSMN
# [3] = biological target: T5, 5-hydroxytryptamine receptor 1A (Homo sapiens, UniProt P08908); type: functional, cell-based
# T5 sequence (P08908 whole entry): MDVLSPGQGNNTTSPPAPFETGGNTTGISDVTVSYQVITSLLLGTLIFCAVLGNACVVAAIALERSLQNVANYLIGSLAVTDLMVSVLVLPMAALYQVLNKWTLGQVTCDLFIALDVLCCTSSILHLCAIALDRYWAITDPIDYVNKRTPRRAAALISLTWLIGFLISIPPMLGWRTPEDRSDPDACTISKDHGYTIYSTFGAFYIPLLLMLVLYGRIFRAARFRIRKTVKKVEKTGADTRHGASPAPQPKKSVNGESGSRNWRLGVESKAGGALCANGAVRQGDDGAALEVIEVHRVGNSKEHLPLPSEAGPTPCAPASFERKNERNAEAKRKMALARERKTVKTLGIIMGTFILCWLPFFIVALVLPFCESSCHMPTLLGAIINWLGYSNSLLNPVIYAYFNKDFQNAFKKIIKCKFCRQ
# Thromboxane A2 receptor = biological target: T6, Thromboxane A2 receptor (Homo sapiens, UniProt P21731)
# T6 sequence (P21731 whole entry): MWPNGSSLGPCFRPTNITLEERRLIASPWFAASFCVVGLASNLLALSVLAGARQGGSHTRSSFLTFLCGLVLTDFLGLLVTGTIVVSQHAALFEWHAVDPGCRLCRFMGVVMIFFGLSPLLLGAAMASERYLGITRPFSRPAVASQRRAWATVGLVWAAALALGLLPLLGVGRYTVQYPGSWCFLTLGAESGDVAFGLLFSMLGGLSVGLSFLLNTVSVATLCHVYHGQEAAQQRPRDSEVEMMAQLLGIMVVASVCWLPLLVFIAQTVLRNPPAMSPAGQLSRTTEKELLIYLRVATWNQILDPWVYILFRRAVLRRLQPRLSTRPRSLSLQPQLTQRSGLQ
# Cannabinoid receptor 1 = Cannabinoid receptor 1 (Homo sapiens, UniProt P21554); type: functional, cell-based
# [4] = biological target: T7, Gamma-aminobutyric acid receptor subunit alpha-1 (Rattus norvegicus, UniProt P62813); type: functional
# [5] = biological target: T7, Gamma-aminobutyric acid receptor subunit alpha-1
# Further: assay procedure not described here.
# Mu-type opioid receptor, sequence (P35372 whole entry): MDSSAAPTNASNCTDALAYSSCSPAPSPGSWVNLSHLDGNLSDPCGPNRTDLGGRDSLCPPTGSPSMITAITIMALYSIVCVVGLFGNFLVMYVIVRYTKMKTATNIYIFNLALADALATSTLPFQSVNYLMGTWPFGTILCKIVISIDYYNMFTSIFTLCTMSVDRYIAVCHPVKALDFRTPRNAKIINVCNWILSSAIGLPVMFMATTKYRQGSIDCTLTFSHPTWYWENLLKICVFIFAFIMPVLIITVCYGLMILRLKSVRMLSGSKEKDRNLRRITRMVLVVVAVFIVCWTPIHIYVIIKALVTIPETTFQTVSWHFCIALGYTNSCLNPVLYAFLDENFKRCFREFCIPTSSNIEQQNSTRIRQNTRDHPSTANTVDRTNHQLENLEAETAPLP
# T7 sequence (P62813 whole entry): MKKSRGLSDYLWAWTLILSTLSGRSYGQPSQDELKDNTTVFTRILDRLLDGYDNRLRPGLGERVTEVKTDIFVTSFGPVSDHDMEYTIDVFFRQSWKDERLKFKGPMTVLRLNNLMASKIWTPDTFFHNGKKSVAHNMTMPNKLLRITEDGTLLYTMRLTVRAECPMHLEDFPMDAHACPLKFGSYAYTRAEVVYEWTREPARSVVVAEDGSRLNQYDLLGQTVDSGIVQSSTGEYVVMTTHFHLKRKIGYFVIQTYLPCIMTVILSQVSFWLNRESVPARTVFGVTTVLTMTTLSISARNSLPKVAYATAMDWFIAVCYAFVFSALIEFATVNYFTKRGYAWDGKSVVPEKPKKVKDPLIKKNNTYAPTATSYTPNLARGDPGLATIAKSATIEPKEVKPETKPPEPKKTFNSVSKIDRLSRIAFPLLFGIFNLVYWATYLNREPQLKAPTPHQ
# Cannabinoid receptor 1, sequence (P21554 whole entry): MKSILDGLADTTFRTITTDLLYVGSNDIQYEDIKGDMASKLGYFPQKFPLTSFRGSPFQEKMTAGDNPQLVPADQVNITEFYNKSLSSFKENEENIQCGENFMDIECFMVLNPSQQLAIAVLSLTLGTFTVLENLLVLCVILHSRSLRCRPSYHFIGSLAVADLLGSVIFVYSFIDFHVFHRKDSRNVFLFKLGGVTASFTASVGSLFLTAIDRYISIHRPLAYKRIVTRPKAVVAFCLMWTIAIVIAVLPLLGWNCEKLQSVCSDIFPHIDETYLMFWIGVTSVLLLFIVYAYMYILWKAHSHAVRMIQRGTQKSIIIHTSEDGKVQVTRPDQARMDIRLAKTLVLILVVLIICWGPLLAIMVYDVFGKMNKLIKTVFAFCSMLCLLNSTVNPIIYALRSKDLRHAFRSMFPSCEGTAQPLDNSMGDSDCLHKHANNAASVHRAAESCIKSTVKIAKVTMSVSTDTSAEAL
# Histamine H2 receptor, sequence (P25021 whole entry): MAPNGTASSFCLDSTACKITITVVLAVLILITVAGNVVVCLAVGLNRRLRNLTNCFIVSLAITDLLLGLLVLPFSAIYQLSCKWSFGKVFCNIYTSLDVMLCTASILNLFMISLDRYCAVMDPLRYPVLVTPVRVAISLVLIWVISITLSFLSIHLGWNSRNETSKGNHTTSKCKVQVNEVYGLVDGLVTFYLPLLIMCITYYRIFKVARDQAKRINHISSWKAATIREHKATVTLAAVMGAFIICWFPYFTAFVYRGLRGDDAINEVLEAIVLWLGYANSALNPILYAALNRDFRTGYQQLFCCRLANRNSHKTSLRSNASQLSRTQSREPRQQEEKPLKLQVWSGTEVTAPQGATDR
# Beta-2 adrenergic receptor, sequence (P07550 whole entry): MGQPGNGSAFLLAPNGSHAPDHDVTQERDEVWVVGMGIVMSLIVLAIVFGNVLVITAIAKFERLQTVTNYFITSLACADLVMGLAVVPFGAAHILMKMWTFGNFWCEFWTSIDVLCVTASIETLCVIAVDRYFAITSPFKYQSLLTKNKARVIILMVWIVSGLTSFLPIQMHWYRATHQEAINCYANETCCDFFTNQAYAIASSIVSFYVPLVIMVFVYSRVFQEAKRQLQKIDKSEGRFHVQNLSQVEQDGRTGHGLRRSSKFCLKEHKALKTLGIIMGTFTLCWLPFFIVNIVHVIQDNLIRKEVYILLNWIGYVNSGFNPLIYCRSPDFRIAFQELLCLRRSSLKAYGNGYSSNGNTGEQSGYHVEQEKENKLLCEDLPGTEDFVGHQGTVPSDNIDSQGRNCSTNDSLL
compound,measurement,setting,value
CCOc1nc2cccc(C(=O)O)c2n1Cc1ccc(-c2ccccc2-c2nnn[nH]2)cc1,AC50,Mu-type opioid receptor,> 30 µM
same,AC50,Adenosine receptor A3,> 30 µM
same,AC50,[1],> 30 µM
same,AC50,Histamine H2 receptor,> 10 µM
same,AC50,Adenosine receptor A1,> 30 µM
same,AC50,[2],> 30 µM
same,AC50,Endothelin-1 receptor,> 30 µM
same,AC50,[3],> 30 µM
same,AC50,Thromboxane A2 receptor,> 10 µM
same,AC50,Cannabinoid receptor 1,> 30 µM
same,AC50,[4],> 30 µM
CC[C@@H]1C[C@]1(NC(=O)[C@@H]1C[C@@H]2CN1C(=O)[C@H](C(C)(C)C)NC(=O)OCC(C)(C)CCCCc1cccc3c1CN(C3)C(=O)O2)C(=O)NS(=O)(=O)C1CC1,AC50,[5],> 30 µM
CC(=O)NO [ACETOHYDROXAMIC ACID],AC50,[5],> 30 µM
O=C(O)c1ccccc1 [BENZOIC ACID],AC50,[5],> 30 µM
Nc1c(CC(=O)O)cccc1C(=O)c1ccc(Br)cc1 [BROMFENAC],AC50,[5],> 30 µM
CCCNC(=O)NS(=O)(=O)c1ccc(Cl)cc1 [CHLORPROPAMIDE],AC50,Mu-type opioid receptor,> 30 µM
same,AC50,Adenosine receptor A3,> 30 µM
same,AC50,[1],> 10 µM
same,AC50,Histamine H2 receptor,> 10 µM
same,AC50,Adenosine receptor A1,> 30 µM
same,AC50,[2],> 30 µM
same,AC50,Endothelin-1 receptor,> 30 µM
same,AC50,[3],> 10 µM
same,AC50,Thromboxane A2 receptor,> 30 µM
same,AC50,Cannabinoid receptor 1,> 30 µM
same,AC50,[4],> 10 µM
Cc1nc(Nc2ncc(C(=O)Nc3c(C)cccc3Cl)s2)cc(N2CCN(CCO)CC2)n1 [DASATINIB],AC50,Mu-type opioid receptor,> 30 µM
same,AC50,Adenosine receptor A3,21.5 µM
same,AC50,[1],> 30 µM
same,AC50,Histamine H2 receptor,> 30 µM
same,AC50,Adenosine receptor A1,> 30 µM
same,AC50,[2],> 30 µM
same,AC50,Endothelin-1 receptor,> 30 µM
same,AC50,[3],> 30 µM
same,AC50,Thromboxane A2 receptor,> 10 µM
same,AC50,Cannabinoid receptor 1,> 30 µM
O=C(O)Cc1ccccc1Nc1c(Cl)cccc1Cl [DICLOFENAC],AC50,Mu-type opioid receptor,> 30 µM
same,AC50,Adenosine receptor A3,> 30 µM
same,AC50,[1],> 10 µM
same,AC50,Histamine H2 receptor,> 10 µM
same,AC50,Adenosine receptor A1,> 30 µM
same,AC50,[2],> 30 µM
same,AC50,Endothelin-1 receptor,> 30 µM
same,AC50,[3],> 10 µM
same,AC50,Thromboxane A2 receptor,> 30 µM
same,AC50,Cannabinoid receptor 1,> 30 µM
same,AC50,[4],> 10 µM
CN[C@@H]1[C@H](O[C@H]2[C@H](O[C@H]3[C@H](O)[C@@H](O)[C@H](NC(=N)N)[C@@H](O)[C@@H]3NC(=N)N)O[C@@H](C)[C@]2(O)CO)O[C@@H](CO)[C@H](O)[C@H]1O [DIHYDROSTREPTOMYCIN],AC50,[5],> 30 µM
CC[C@H]1OC(=O)[C@H](C)[C@@H](O[C@H]2C[C@@](C)(OC)[C@@H](O)[C@H](C)O2)[C@H](C)[C@@H](O[C@@H]2O[C@H](C)C[C@H](N(C)C)[C@H]2O)[C@](C)(O)C[C@@H](C)[C@@H]2N[C@@H](COCCOC)O[C@H]([C@H]2C)[C@]1(C)O [DIRITHROMYCIN],AC50,[5],> 30 µM
CCCCc1oc2ccc(NS(C)(=O)=O)cc2c1C(=O)c1ccc(OCCCN(CCCC)CCCC)cc1 [DRONEDARONE],AC50,[5],> 30 µM
CC(C)C(=O)Oc1ccc(CO)cc1[C@H](CCN(C(C)C)C(C)C)c1ccccc1 [FESOTERODINE],AC50,[5],> 30 µM
O=C(O)P(=O)(O)O [FOSCARNET],AC50,[5],> 30 µM
C#C[C@]1(O)C=C[C@H]2[C@@H]3CCC4=CC(=O)CC[C@@H]4[C@H]3CC[C@@]21CC [GESTODENE],AC50,[5],2.16 µM
C[N+](C)(CCCCCC[N+](C)(C)C1c2ccccc2-c2ccccc21)C1c2ccccc2-c2ccccc21 [HEXAFLUORENIUM],AC50,[5],> 30 µM
CCCCC(CC)CN1CN(CC(CC)CCCC)CC(C)(N)C1 (stereo not given) [HEXETIDINE],AC50,[5],> 30 µM

# — ChEMBL document CHEMBL5291721, “A preclinical secondary pharmacology resource illuminates target-adverse drug reaction associations of marketed drugs” (Nat Commun, 2023)
